In patent publication US20050197336A1 (Miikana Therapeutics Corporation, priority 2004, published 2005):

System: MCF7 cells
Test: Whole cell cytotoxicity assay: Sulforhodamine B
Type: cell-based, human
Conditions: Homo sapiens; compound at 100 μM; MCF7 cell growth; 48 hours with drug; SRB staining
Experimental: The following procedure can be found on the Developmental Therapeutics Program NCI/NIH web site at http://dtp.nci.nih.gov/brancehes/btb/ivclsp.html.
1. Human tumor cell lines of HT29, A549 and MCF7 are grown in DMEM containing 10% fetal bovine serum and 2 mM L-glutamine. Cells are plated in a 96 well plate at a density of 5000 cells per well in 100 μL of growth medium and incubated at 37° C., 5% CO2, for 24 hours prior to the addition of experimental compounds.
2. Experimental drugs are solubilized in DMSO for a final concentration of 20 mM immediately prior to use. Drugs are further diluted in growth media for a total of nine drug concentrations and a growth control. At the 24 hour time point, one plate of cells is fixed in situ with TCA as a measurement of the cell population at time zero, or the time of drug addition.
3. The plates are further incubated with drug for an additional 48 hours.
4. The cells are fixed in situ by gently aspirating off the culture media and then adding 50 μL of ice cold 10% TCA per well and incubated at 4° C. for 60 minutes. The plates are washed with tap water five times and allowed to air dry for 5 minute.
5. 50 μL of a 0.4% (w/v) Sulforhodamine B solution in 1% (v/v) acetic acid is added per well and incubated for 30 minutes at room temperature.
6. Following staining, plates are washed five times with 1% acetic acid to remove any unbound dye and then allowed to air dry for 5 minutes.
7. Stain is solubilized with 100 μL of 10 mM Tris pH 10.5 per well and placed on an orbital rotator for 5 minutes.
8. Absorbance is read at 570 nm.

| Compound | inhibition at 100 µM |
| --- | --- |
| O=C(NO)c1cnc(N2CCN(S(=O)(=O)c3ccc(C(F)(F)F)cc3)CC2)s1 [Example 5, 2-[4-(4-trifluoromethyl-benzenesulfonyl)-piperazin-1-yl]-thiazole-5-carboxylic acid hydroxyamide] | 97.9% |
| CC(=O)c1ccc(S(=O)(=O)N2CCN(c3ncc(C(=O)NO)s3)CC2)cc1 [Example 7, 2-[4-(4-acetyl-benzenesulfonyl)-piperazin-1-yl]-thiazole-5-carboxylic acid hydroxyamide] | 83.3% |
| O=C(NO)c1cnc(N2CCN(S(=O)(=O)c3ccc(Cl)c(Cl)c3)CC2)s1 [Example 15, 2-[4-(3,4-dichlorolphenylsulfonyl)-piperazin-1-yl]-thiazole-5-carboxylic acid hydroxyamide] | 88.5% |
| O=C(NO)c1cnc(N2CCN(S(=O)(=O)c3ccccc3Cl)CC2)s1 [Example 17, 2-[4-(2-chlorophenalsulfonyl)-piperazin-1-yl]-thiazole-5-carboxylic acid hydroxyamide] | 97.8% |
| O=C(NO)c1cnc(N2CCN(S(=O)(=O)c3ccc4c(c3)CCO4)CC2)s1 [Example 42, 2-[4-(2,3-dihydrobenzofuransulfonyl)-piperazin-1-yl]-thiazole-5-carboxylic acid hydroxyamide] | 90% |
| O=C(NO)c1cnc(N2CCN(S(=O)(=O)c3ccc4c(c3)OCCO4)CC2)s1 [Example 44, 2-[4-(3,4-benzodioxansulfonyl)-piperazin-1-yl]-thiazole-5-carboxylic acid hydroxyamide] | 91.7% |
| O=C(NO)c1cnc(N2CCN(S(=O)(=O)c3cc(F)cc(F)c3)CC2)s1 [Example 52, 2-[4-(3,5-difluorophenylsulfonyl)-piperazin-1-yl]-thiazole-5-carboxylic acid hydroxyamide] | 97.3% |
| O=C(NO)c1cnc(N2CCN(S(=O)(=O)c3ccc(Cl)cc3)CC2)s1 [Example 54, 2-[4-(chlorophenalsulfonyl)-piperazin-1-yl]-thiazole-5-carboxylic acid hydroxyamide] | 97.1% |
| O=C(NO)c1cnc(N2CCN(S(=O)(=O)c3ccc(-c4ccc[nH]4)cc3)CC2)s1 [Example 67, 2-(4-{[4-(1H-pyrrol-2-yl)phenyl]sulfonyl}piperazin-1-yl)-1,3-thiazole-5-carboxylic acid hydroxyamide] | 98% |
| O=C(NO)c1cnc(N2CCN(S(=O)(=O)c3ccc(-c4ccc(C(=O)N5CCOCC5)cc4)cc3)CC2)s1 [Example 69, 2-[4-(4′-(morpholin-4-ylcarbonyl)-1,1′-biphenylsulfonyl)piperazin-1-yl]-1,3-thiazole-5-carboxylic acid hydroxyamide] | 87.7% |
| CS(=O)(=O)Nc1ccc(-c2ccc(S(=O)(=O)N3CCN(c4ncc(C(=O)NO)s4)CC3)cc2)cc1 [Example 70, 2-[4-(4′-methylsulfonylamino-1,1′-biphenylsulfonyl)piperazin-1-yl]-1,3-thiazole-5-carboxylic acid hydroxyamide] | 83.6% |
| CN(C)c1cccc(-c2ccc(S(=O)(=O)N3CCN(c4ncc(C(=O)NO)s4)CC3)cc2)c1 [Example 71, 2-[4-(3′-(dimethylamino)-1,1′-biphenylsulfonyl)piperazin-1-yl]-1,3-thiazole-5-carboxylic acid hydroxyamide] | 97.2% |
| CN(C)CCN(C)Cc1cccc(-c2ccc(S(=O)(=O)N3CCN(c4ncc(C(=O)NO)s4)CC3)cc2)c1 [Example 85, 2-{4-[3′-{[(2-(dimethylamino)ethyl)(methyl)amino]methyl}-1,1′-biphenylsulfonyl]piperazin-1-yl}-1,3-thiazole-5-carboxylic acid hydroxyamide] | 97.5% |
| CCc1ccc(S(=O)(=O)N2CCN(c3ncc(C(=O)NO)s3)CC2)cc1 [Example 100, 2-[4-(4-Ethylbenzenesulfonyl)piperazin-1-yl]-thiazole-5-carboxylic acid hydroxyamide] | 96.8% |
